Results taken from patent publication US20250205259A1, “CLASS OF 7-((FIVE-MEMBERED HETEROCYCLIC)METHYL)-8-CARBOXYLIC ACID-BENZO CYCLIC BORATE DERIVATIVES AND USES THEREOF” (priority 2022, published 2025).
pIC50: −log10 of the molar value. Where two headings read alike, the source gives them in different places.

Tests used:
Type in all cases: biochemical
[1] = biological target: CTX-M-14 (Escherichia coli, UniProt Q9L5C7); assay: Inhibitory activity on SBL, fluorescent substrate FC-5; conditions: for pIC50: read-out: Inhibitory activity on SBL CTX-M-14 (IC50 class); for inhibitory activity on CTX-M-14 compared to avibactam: comparison in words
Sequence of CTX-M-14 (Q9L5C7 entry or part of it): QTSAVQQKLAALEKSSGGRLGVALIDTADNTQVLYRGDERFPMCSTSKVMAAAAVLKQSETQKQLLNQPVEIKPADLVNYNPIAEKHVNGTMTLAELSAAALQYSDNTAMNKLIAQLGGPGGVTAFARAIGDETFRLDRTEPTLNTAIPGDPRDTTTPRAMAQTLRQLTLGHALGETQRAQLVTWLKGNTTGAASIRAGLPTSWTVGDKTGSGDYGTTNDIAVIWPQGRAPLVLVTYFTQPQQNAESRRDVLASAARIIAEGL

[2] = biological target: KPC-2 (Klebsiella pneumoniae, UniProt Q9F663); assay: as above; conditions: for inhibitory activity on KPC-2 compared to avibactam: comparison in words
Sequence of KPC-2 (Q9F663 25-293 limits assumed): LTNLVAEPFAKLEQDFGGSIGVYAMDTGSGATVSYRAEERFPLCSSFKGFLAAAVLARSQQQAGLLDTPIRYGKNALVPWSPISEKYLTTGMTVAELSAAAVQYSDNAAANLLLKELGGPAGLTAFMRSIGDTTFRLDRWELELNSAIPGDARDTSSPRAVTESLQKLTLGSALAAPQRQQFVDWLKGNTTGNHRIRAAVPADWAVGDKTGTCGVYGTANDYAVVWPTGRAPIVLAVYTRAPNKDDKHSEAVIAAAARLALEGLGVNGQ

[3] = biological target: TEM-1 (Escherichia coli, UniProt P62593); assay: as above; conditions: for pIC50: read-out: Inhibitory activity on SBL TEM-1 (IC50 class); for inhibitory activity on TEM-1 compared to avibactam: comparison in words
Sequence of TEM-1 (P62593 24-286 limits assumed): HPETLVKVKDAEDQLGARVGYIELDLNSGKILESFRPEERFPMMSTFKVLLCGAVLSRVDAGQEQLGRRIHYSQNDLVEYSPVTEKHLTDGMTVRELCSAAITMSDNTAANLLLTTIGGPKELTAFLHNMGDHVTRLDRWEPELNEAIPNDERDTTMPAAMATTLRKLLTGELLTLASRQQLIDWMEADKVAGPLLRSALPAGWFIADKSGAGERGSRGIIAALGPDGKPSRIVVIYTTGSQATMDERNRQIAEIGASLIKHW

[4] = biological target: OXA-48 (Klebsiella pneumoniae, UniProt Q6XEC0); assay: as above; conditions: for inhibitory activity on OXA-48 compared to avibactam: comparison in words
Sequence of OXA-48 (Q6XEC0 23-265 limits assumed): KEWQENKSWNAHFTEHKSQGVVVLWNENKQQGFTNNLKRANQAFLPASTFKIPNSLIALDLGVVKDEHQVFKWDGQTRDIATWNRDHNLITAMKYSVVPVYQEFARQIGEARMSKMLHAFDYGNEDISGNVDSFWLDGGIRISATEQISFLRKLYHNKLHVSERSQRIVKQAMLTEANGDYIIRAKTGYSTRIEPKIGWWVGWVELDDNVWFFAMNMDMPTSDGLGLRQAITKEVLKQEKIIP

[5] = biological target: VIM-1 (Pseudomonas aeruginosa, UniProt A0A0F7KYQ8); assay: Inhibitory activity on MBL, fluorescent substrate FC-5
[6] = biological target: NDM-5 (Klebsiella pneumoniae, UniProt C7C422, M154L/V88L); assay: as above
Sequence of NDM-5 (C7C422 29-270 V88L/M154L): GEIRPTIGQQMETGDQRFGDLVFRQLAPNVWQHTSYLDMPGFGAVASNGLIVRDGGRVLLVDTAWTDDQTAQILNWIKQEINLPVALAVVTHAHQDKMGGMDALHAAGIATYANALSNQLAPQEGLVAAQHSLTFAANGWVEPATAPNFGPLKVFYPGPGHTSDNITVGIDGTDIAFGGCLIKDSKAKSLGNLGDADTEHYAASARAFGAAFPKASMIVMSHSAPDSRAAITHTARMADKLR

[7] = biological target: NDM-1 (Klebsiella pneumoniae, UniProt C7C422); assay: as above
Sequence of NDM-1 (C7C422 29-270 limits assumed): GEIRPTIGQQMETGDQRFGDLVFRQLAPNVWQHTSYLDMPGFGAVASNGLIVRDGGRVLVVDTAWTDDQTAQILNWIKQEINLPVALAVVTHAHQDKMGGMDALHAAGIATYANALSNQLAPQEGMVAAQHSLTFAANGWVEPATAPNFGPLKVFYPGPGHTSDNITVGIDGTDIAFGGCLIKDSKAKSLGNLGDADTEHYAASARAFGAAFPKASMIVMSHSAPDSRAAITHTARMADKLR

[8] = biological target: VIM-2 (Escherichia coli, UniProt Q5U7L7); assay: as above
[9] = biological target: IMP-1 (Serratia marcescens, UniProt P52699); assay: as above
Sequence of IMP-1 (P52699 19-246 limits assumed): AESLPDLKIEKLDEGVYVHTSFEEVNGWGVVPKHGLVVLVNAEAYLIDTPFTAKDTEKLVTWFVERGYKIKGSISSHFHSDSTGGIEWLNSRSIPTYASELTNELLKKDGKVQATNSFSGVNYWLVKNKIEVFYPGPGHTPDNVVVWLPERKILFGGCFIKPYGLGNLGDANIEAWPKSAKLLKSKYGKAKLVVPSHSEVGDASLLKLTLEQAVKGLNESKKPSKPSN

[10] = read-out: Inhibitory activity on SBL KPC-2 (IC50 class)
[11] = read-out: Inhibitory activity on SBL OXA-48 (IC50 class)
[12] = read-out: Inhibitory activity on MBL VIM-1 (IC50 class)
[13] = read-out: Inhibitory activity on MBL NDM-5 (IC50 class)
[14] = read-out: Inhibitory activity on MBL NDM-1 (IC50 class)
[15] = read-out: Inhibitory activity on MBL VIM-2 (IC50 class)
[16] = read-out: Inhibitory activity on MBL IMP-1 (IC50 class)
[17] = salts, read-out: inhibitory activity at a nanomolar-level on KPC-2
[18] = salts, read-out: inhibitory activity at a nanomolar-level on OXA-48
[19] = read-out: inhibitory activity at a nanomolar-level on NDM-5
[20] = read-out: inhibitory activity at a nanomolar-level on NDM-1
[21] = VIM-1 and/or VIM-2, read-out: inhibitory activity at a nanomolar-level on VIM-1 and/or VIM-2
[22] = IMP-1 and/or IMP-4, read-out: inhibitory activity at a nanomolar-level on IMP-1 and/or IMP-4

| Structure (SMILES) | pIC50 [1] | pIC50 [2, 10] | pIC50 [3] | pIC50 [4, 11] | pIC50 [5, 12] | pIC50 [6, 13] | pIC50 [7, 14] | pIC50 [8, 15] | pIC50 [9, 16] | pIC50 [2, 17] | other results |
| --- | --- | --- | --- | --- | --- | --- | --- | --- | --- | --- | --- |
| O=C(O)c1c(Cn2ncc3c2CNC3)ccc2c1OB(O)CC2 [Compound 66] | 6.00 to 8.00 | > 8.00 | 6.00 to 8.00 | > 8.00 |  |  |  |  |  |  |  |
| NC1CN(Cc2cnn(Cc3ccc4c(c3C(=O)O)OB(O)CC4)c2)C1 [Compound 75] | 4.00 to 6.00 | 6.00 to 8.00 | 4.00 to 6.00 | 4.00 to 6.00 | 4.00 to 6.00 | < 4.00 | 4.00 to 6.00 | < 4.00 | < 4.00 |  |  |
| N=C(N)N1Cc2cn(Cc3ccc4c(c3C(=O)O)OB(O)CC4)nc2C1 [58-toluene sulfonic acid] |  |  |  |  |  |  |  |  |  | > 8.00 | pIC50 [4, 18]: > 8.00 |
| NCCc1ccc(-c2cn(Cc3ccc4c(c3C(=O)O)OB(O)CC4)nn2)cc1 [63-tartaric acid] |  | > 8.00 |  |  |  |  |  |  |  | > 8.00 |  |
| O=C(O)c1c(Cn2cc(C3CNC3)nn2)ccc2c1OB(O)CC2 [Compound 47] | 6.00 to 8.00 | 6.00 to 8.00 | 6.00 to 8.00 | 6.00 to 8.00 | 4.00 to 6.00 | 4.00 to 6.00 | 6.00 to 8.00 | 4.00 to 6.00 | 4.00 to 6.00 |  | pIC50 [6, 19]: > 6.00; pIC50 [7, 20]: > 6.00 |
| NCc1cnn(Cc2ccc3c(c2C(=O)O)OB(O)[C@@H](Sc2nncs2)C3)c1 [Compound 68] | 4.00 to 6.00 | 4.00 to 6.00 | 4.00 to 6.00 | 4.00 to 6.00 | 4.00 to 6.00 | 4.00 to 6.00 | 6.00 to 8.00 | 6.00 to 8.00 | 4.00 to 6.00 |  |  |
| CC(N)c1cnn(Cc2ccc3c(c2C(=O)O)OB(O)CC3)c1 (stereo not shown) [Compound 39] | 6.00 to 8.00 | > 8.00 | 6.00 to 8.00 | 6.00 to 8.00 | 4.00 to 6.00 | 4.00 to 6.00 | 4.00 to 6.00 | 4.00 to 6.00 | 4.00 to 6.00 |  |  |
| N=C(N)NCc1ccc(-c2cn(Cc3ccc4c(c3C(=O)O)OB(O)CC4)nn2)cc1 [64-citric acid] |  |  |  |  |  |  |  |  |  | > 8.00 | pIC50 [4, 18]: > 8.00 |
| NCc1cn(Cc2ccc3c(c2C(=O)O)OB(O)CC3)nn1 [Compound 7] | 6.00 to 8.00 | 6.00 to 8.00 | 6.00 to 8.00 | 6.00 to 8.00 | 4.00 to 6.00 | 4.00 to 6.00 | 4.00 to 6.00 | 4.00 to 6.00 | 4.00 to 6.00 |  |  |
| NS(=O)(=O)c1ccc(-c2cn(Cc3ccc4c(c3C(=O)O)OB(O)CC4)nn2)cc1 [Compound 62] | > 8.00 | > 8.00 | 6.00 to 8.00 | > 8.00 | 6.00 to 8.00 | 6.00 to 8.00 | 6.00 to 8.00 | 6.00 to 8.00 | 6.00 to 8.00 |  | inhibitory activity on CTX-M-14 compared to avibactam [1]: better or comparable; inhibitory activity on KPC-2 compared to avibactam [2]: better or comparable; pIC50 [5, 21]: > 6.00; pIC50 [6, 19]: > 6.00; pIC50 [7, 20]: > 6.00; inhibitory activity on TEM-1 compared to avibactam [3]: better or comparable; pIC50 ([8]; read-out: inhibitory activity on VIM-2): > 8.00; inhibitory activity on OXA-48 compared to avibactam [4]: better or comparable; pIC50 [9, 22]: > 6.00 |
| N=C(N)N1CC(c2cn(Cc3ccc4c(c3C(=O)O)OB(O)CC4)nn2)C1 [Compound 49-Na] |  |  |  |  |  |  |  |  |  | > 8.00 |  |
| CO[C@H]1Cc2ccc(Cn3ccnn3)c(C(=O)O)c2OB1O [Compound 30] | 6.00 to 8.00 | > 8.00 | 6.00 to 8.00 | 6.00 to 8.00 | 6.00 to 8.00 | 6.00 to 8.00 | 6.00 to 8.00 | 6.00 to 8.00 | 6.00 to 8.00 |  | pIC50 [5, 21]: > 6.00; pIC50 [6, 19]: > 6.00; pIC50 [7, 20]: > 6.00; pIC50 [9, 22]: > 6.00 |
| N=C(N)Nc1cnn(Cc2ccc3c(c2C(=O)O)OB(O)CC3)c1 [Compound 38] | 6.00 to 8.00 | 6.00 to 8.00 | 6.00 to 8.00 | > 8.00 | 4.00 to 6.00 | 6.00 to 8.00 | 6.00 to 8.00 | 6.00 to 8.00 | 4.00 to 6.00 |  | pIC50 [6, 19]: > 6.00; pIC50 [7, 20]: > 6.00 |
| O=C(O)c1c(Cn2cc3c(n2)CNC3)ccc2c1OB(O)CC2 [Compound 56] | 6.00 to 8.00 | > 8.00 | > 8.00 | > 8.00 | 6.00 to 8.00 | 6.00 to 8.00 | 6.00 to 8.00 | 6.00 to 8.00 | 4.00 to 6.00 |  | pIC50 [5, 21]: > 6.00; pIC50 [6, 19]: > 6.00; pIC50 [7, 20]: > 6.00 |
| NC1(c2cn(Cc3ccc4c(c3C(=O)O)OB(O)CC4)nn2)CC1 [41-propionic acid] |  |  |  |  |  |  |  |  |  | > 8.00 |  |
| NCCc1cnn(Cc2ccc3c(c2C(=O)O)OB(O)CC3)c1 [43-maleic acid] |  |  |  |  |  |  |  |  |  | > 8.00 |  |
| NCc1ccc(-c2cn(Cc3ccc4c(c3C(=O)O)OB(O)CC4)nn2)cc1 [Compound 63] | 6.00 to 8.00 | > 8.00 | 6.00 to 8.00 | > 8.00 | 6.00 to 8.00 | 6.00 to 8.00 | 6.00 to 8.00 | 6.00 to 8.00 | 6.00 to 8.00 |  | inhibitory activity on CTX-M-14 compared to avibactam [1]: better or comparable; inhibitory activity on KPC-2 compared to avibactam [2]: better or comparable; pIC50 [5, 21]: > 6.00; pIC50 [6, 19]: > 6.00; pIC50 [7, 20]: > 6.00; inhibitory activity on TEM-1 compared to avibactam [3]: better or comparable; inhibitory activity on OXA-48 compared to avibactam [4]: better or comparable; pIC50 [9, 22]: > 6.00 |
| NCCc1cnn(Cc2ccc3c(c2C(=O)O)OB(O)CC3)c1 [Compound 43] |  | > 8.00 |  |  |  |  |  |  |  |  |  |
| NCCNc1cnn(Cc2ccc3c(c2C(=O)O)OB(O)CC3)c1 [Compound 33] | 6.00 to 8.00 | > 8.00 | 6.00 to 8.00 | > 8.00 | 4.00 to 6.00 | 6.00 to 8.00 | 6.00 to 8.00 | 6.00 to 8.00 | 4.00 to 6.00 |  | pIC50 [6, 19]: > 6.00; pIC50 [7, 20]: > 6.00 |
| N=C(N)NCc1cnn(Cc2ccc3c(c2C(=O)O)OB(O)CC3)c1 [Compound 37] | > 8.00 | > 8.00 | > 8.00 | > 8.00 | 4.00 to 6.00 | 6.00 to 8.00 | 6.00 to 8.00 | 6.00 to 8.00 | 4.00 to 6.00 |  | pIC50 [6, 19]: > 6.00; pIC50 [7, 20]: > 6.00 |
| O=C(O)c1c(Cn2cc3c(n2)CNC3)ccc2c1OB(O)C=C2 [Compound 52] | 4.00 to 6.00 | 4.00 to 6.00 | 4.00 to 6.00 | 4.00 to 6.00 | 4.00 to 6.00 | 4.00 to 6.00 | 4.00 to 6.00 | 4.00 to 6.00 | 4.00 to 6.00 |  |  |
| NCc1cnn(Cc2ccc3c(c2C(=O)O)OB(O)CC3)c1 [Compound 21] |  | > 8.00 |  | > 8.00 |  |  |  |  |  |  |  |
| NCc1cnn(Cc2ccc3c(c2C(=O)O)OB(O)CC3)c1 [21-phosphoric acid] |  |  |  |  |  |  |  |  |  | > 8.00 | pIC50 [4, 18]: > 8.00 |
| NC1(c2cn(Cc3ccc4c(c3C(=O)O)OB(O)CC4)nn2)CC1 [Compound 41] | 6.00 to 8.00 | > 8.00 | 6.00 to 8.00 | 6.00 to 8.00 |  |  |  | 6.00 to 8.00 |  |  |  |
| N=C(N)N1Cc2cn(Cc3ccc4c(c3C(=O)O)OB(O)CC4)nc2C1 [Compound 58] |  | > 8.00 | > 8.00 | > 8.00 |  |  |  |  |  |  |  |
| O=C(O)c1c(Cn2cc3c(n2)CNC3)ccc2c1OB(O)CC2 [Compound 56-Na] | 6.00 to 8.00 | > 8.00 | 6.00 to 8.00 | > 8.00 | 6.00 to 8.00 |  | 6.00 to 8.00 | 6.00 to 8.00 | 4.00 to 6.00 | > 8.00 | pIC50 [4, 18]: > 8.00 |
| N=C(N)NCc1ccc(-c2cn(Cc3ccc4c(c3C(=O)O)OB(O)CC4)nn2)cc1 [Compound 64] |  | > 8.00 |  | > 8.00 |  |  |  |  |  |  | inhibitory activity on CTX-M-14 compared to avibactam [1]: better or comparable; inhibitory activity on KPC-2 compared to avibactam [2]: better or comparable; inhibitory activity on TEM-1 compared to avibactam [3]: better or comparable; inhibitory activity on OXA-48 compared to avibactam [4]: better or comparable |
| O=C(O)c1c(Cn2ncc3c2CNC3)ccc2c1OB(O)CC2 [66-oxalic acid] |  |  |  |  |  |  |  |  |  | > 8.00 | pIC50 [4, 18]: > 8.00 |
| C[C@]1(Cn2ccnn2)[C@H](C(=O)O)N2C(=O)C[C@H]2S1(=O)=O [Tazobactam, reference compound] |  | 4.00 to 6.00 |  |  |  | < 4.00 | < 4.00 | < 4.00 | < 4.00 |  | pIC50 ([5]; Inhibitory activity on MBL VIM-1 (IC50 class)): < 4.00; pIC50 ([4]; Inhibitory activity on SBL OXA-48 (IC50 class)): 4.00 to 6.00 |
| NCc1ccc(-c2cn(Cc3ccc4c(c3C(=O)O)OB(O)CC4)nn2)cc1 [Compound 63-Na] |  |  |  |  |  |  |  |  |  | > 8.00 | pIC50 [4, 18]: > 8.00 |
